# Test results reported in US12723050B2, “Crystal form of compound and use thereof” (TENNOR THERAPEUTICS (SUZHOU) LIMITED, priority 2023, dated 2026).
# Tests used:
# Format in all cases: physicochemical
# [1] = Hygroscopicity test (dynamic vapor sorption, DVS), with XRPD before and after; conditions: for moisture uptake (DVS): 25° C./80% RH
# Experimental: (§1) DVS profiles were acquired on SMS (Surface Measurement Systems) DVS Intrinsic and DVS Intrinsic plus. The relative humidity at 25° C. was calibrated using the deliquescence points of LiCl, Mg(NO3)2, and KCl.
# [2] = Solid stability evaluation (XRPD and HPLC) of samples left to stand open; conditions: for HPLC peak 6, RRT 1.00 (main peak): in %
# Experimental: The crystal form A was left to stand open at 60° C. for 24 hours, and at 25° C./60% RH and 40° C./75% RH for 1 week. The physical and chemical stability of the samples was detected by XRPD and HPLC. The stability evaluation results are summarized in Table 4, the XRPD results are shown in FIG. 12, and the HPLC results are shown in Table 5 and FIG. 13.
# [3] = Crystal form stability on drying or heating (XRPD)
# Experimental: 40.05 g of the crude compound of formula (I) was weighed and mixed with ethanol of 5 folds by mass, and the mixture was stirred at 25° C. for 30 minutes. At this point, a visible solid precipitate was observed. The mixture was stirred for another 2-3 hours, followed by filtration. The wet cake was washed with 80 mL of ethanol. Three solvate crystal forms, C1, C2, and C3, with different structures were detected in the undried wet product of the compound of formula (I) formed in ethanol. Their XRPD results are shown in FIGS. 9A-9C, Table 2-1, Table 2-2, and Table 2-3.
# Furthermore, the sample had 3 endothermic peaks at 85.6° C., 130.7° C., and 144.3° C. (peak temperatures). […] To further investigate the substantial TGA weight loss of the crystal form B sample, a heating experiment was performed on it. […] Due to the crystal form conversion upon sample heating, combined with the substantial TGA weight loss and the solvent residue indicated by the nuclear magnetic resonance results after heating, it can be inferred that crystal form B is a toluene solvate.
# as §1
# [4] = open, 60° C. 24 hours, 25° C./60% RH and 40° C./75% RH 1 week
compound,measurement,setting,value
CO[C@H]1/C=C/O[C@@]2(C)Oc3c(C)c(O)c4c(c3C2=O)C2=NC3(CCN(CCn5c([N+](=O)[O-])cnc5C)CC3)NC2=C(NC(=O)/C(C)=C\C=C\[C@H](C)[C@H](O)[C@@H](C)[C@@H](O)[C@@H](C)[C@H](OC(C)=O)[C@@H]1C)C4=O [amorphous form],moisture uptake (DVS),[1],5.941%
CO[C@H]1/C=C/O[C@@]2(C)Oc3c(C)c(O)c4c(c3C2=O)C2=NC3(CCN(CCn5c([N+](=O)[O-])cnc5C)CC3)NC2=C(NC(=O)/C(C)=C\C=C\[C@H](C)[C@H](O)[C@@H](C)[C@@H](O)[C@@H](C)[C@H](OC(C)=O)[C@@H]1C)C4=O [crystal form A],moisture uptake (DVS),[1],2.880%
same,"crystal form conversion, XRPD before and after the DVS test",[1]; before and after DVS test,no crystal form conversion
same,stability of the crystal form,[1]; judged from XRPD before and after DVS test,good stability
same,"HPLC impurity peak 1, RRT 0.81",[2]; 25° C./60% RH/Open/1 week,0.18
same,"HPLC impurity peak 2, RRT 0.83",[2]; 25° C./60% RH/Open/1 week,0.06
same,"HPLC impurity peak 3, RRT 0.87",[2]; 25° C./60% RH/Open/1 week,0.05
same,"HPLC impurity peak 4, RRT 0.91",[2]; 25° C./60% RH/Open/1 week,0.06
same,"HPLC impurity peak 5, RRT 0.97",[2]; 25° C./60% RH/Open/1 week,0.19
same,"HPLC peak 6, RRT 1.00 (main peak)",[2]; 25° C./60% RH/Open/1 week,99.45
same,Change in crystal form,"[2]; 25° C./60° C. RH, 1 week, open",No
same,HPLC purity,"[2]; 25° C./60° C. RH, 1 week, open",99.45 area %
same,Change in crystal form,"[2]; 40° C./75% RH, 1 week, open",No
same,HPLC purity,"[2]; 40° C./75% RH, 1 week, open",99.29 area %
same,"HPLC impurity peak 1, RRT 0.81",[2]; 40° C./75% RH/Open/1 week,0.38
same,"HPLC impurity peak 2, RRT 0.83",[2]; 40° C./75% RH/Open/1 week,0.06
same,"HPLC impurity peak 3, RRT 0.87",[2]; 40° C./75% RH/Open/1 week,0.05
same,"HPLC impurity peak 4, RRT 0.91",[2]; 40° C./75% RH/Open/1 week,0.06
same,"HPLC impurity peak 5, RRT 0.97",[2]; 40° C./75% RH/Open/1 week,0.16
same,"HPLC peak 6, RRT 1.00 (main peak)",[2]; 40° C./75% RH/Open/1 week,99.29
same,Change in crystal form,"[2]; 60° C., 24 hours, open",No
same,HPLC purity,"[2]; 60° C., 24 hours, open",99.33 area %
same,"HPLC impurity peak 1, RRT 0.81",[2]; 60° C./open/24 hours,0.30
same,"HPLC impurity peak 2, RRT 0.83",[2]; 60° C./open/24 hours,0.07
same,"HPLC impurity peak 3, RRT 0.87",[2]; 60° C./open/24 hours,0.06
same,"HPLC impurity peak 4, RRT 0.91",[2]; 60° C./open/24 hours,0.07
same,"HPLC impurity peak 5, RRT 0.97",[2]; 60° C./open/24 hours,0.17
same,"HPLC peak 6, RRT 1.00 (main peak)",[2]; 60° C./open/24 hours,99.33
same,"HPLC impurity peak 1, RRT 0.81",[2]; Starting sample,0.29
same,"HPLC impurity peak 2, RRT 0.83",[2]; Starting sample,0.07
same,"HPLC impurity peak 3, RRT 0.87",[2]; Starting sample,0.08
same,"HPLC impurity peak 4, RRT 0.91",[2]; Starting sample,0.07
same,"HPLC impurity peak 5, RRT 0.97",[2]; Starting sample,0.17
same,HPLC purity,[2]; Starting sample,99.32 area %
same,"HPLC peak 6, RRT 1.00 (main peak)",[2]; Starting sample,99.32
same,change in purity (HPLC),[2]; [4],no significant change in purity
same,crystal form conversion (XRPD),[2]; [4],no crystal form conversion
CO[C@H]1/C=C/O[C@@]2(C)Oc3c(C)c(O)c4c(c3C2=O)C2=NC3(CCN(CCn5c([N+](=O)[O-])cnc5C)CC3)NC2=C(NC(=O)/C(C)=C\C=C\[C@H](C)[C@H](O)[C@@H](C)[C@@H](O)[C@@H](C)[C@H](OC(C)=O)[C@@H]1C)C4=O [crystal form B],crystal form stability,"[3]; after heating or drying, all converted to crystal form A",poor crystal form stability
same,crystal form after air-drying (XRPD),[3]; air-drying at room temperature for 24 hours,remained unchanged
same,crystal form after heating (XRPD),[3]; heating to 115° C. and cooling to room temperature,remained unchanged
same,crystal form after heating (XRPD),[3]; heating to 140° C. and cooling to room temperature,converted to crystal form A
CO[C@H]1/C=C/O[C@@]2(C)Oc3c(C)c(O)c4c(c3C2=O)C2=NC3(CCN(CCn5c([N+](=O)[O-])cnc5C)CC3)NC2=C(NC(=O)/C(C)=C\C=C\[C@H](C)[C@H](O)[C@@H](C)[C@@H](O)[C@@H](C)[C@H](OC(C)=O)[C@@H]1C)C4=O [crystal form C1],crystal form after drying (XRPD),"[3]; wet product from ethanol, after drying",converted to crystal form A
